The text below walks through data of patent US20250154144A1 (CHILDREN'S HOSPITAL MEDICAL CENTER, priority 2021, published 2025).

One assay relates to MOLM14 F691L cells. The assay is described as follows: cells. Format: cell-based. Conditions: Homo sapiens, MOLM-14, 48 h, 48 hours, Cell Titer Glo; read-out: MOLM14 F691L IC50.
A further assay deals with T1, FLT3 (Homo sapiens, UniProt P36888).
T1 sequence (P36888 610-943 limits assumed): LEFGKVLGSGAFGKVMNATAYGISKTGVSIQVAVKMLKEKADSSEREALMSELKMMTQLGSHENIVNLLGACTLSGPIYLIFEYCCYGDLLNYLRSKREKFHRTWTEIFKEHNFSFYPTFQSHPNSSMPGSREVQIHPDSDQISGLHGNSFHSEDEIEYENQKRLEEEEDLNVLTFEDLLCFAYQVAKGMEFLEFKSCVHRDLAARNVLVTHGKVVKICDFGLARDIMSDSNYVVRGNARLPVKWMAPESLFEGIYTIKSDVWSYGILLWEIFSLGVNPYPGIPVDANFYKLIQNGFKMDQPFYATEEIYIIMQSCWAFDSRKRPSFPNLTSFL
The assay is described as follows: RBC HotSpot Kinase Assay, FLT3.

In a further assay the target is T2, FLT3 N841I (Homo sapiens, UniProt P36888, N841I).
T2 construct: purchased DiscoverX (KINOMEscan)
T2 sequence (P36888 27-993 N841I): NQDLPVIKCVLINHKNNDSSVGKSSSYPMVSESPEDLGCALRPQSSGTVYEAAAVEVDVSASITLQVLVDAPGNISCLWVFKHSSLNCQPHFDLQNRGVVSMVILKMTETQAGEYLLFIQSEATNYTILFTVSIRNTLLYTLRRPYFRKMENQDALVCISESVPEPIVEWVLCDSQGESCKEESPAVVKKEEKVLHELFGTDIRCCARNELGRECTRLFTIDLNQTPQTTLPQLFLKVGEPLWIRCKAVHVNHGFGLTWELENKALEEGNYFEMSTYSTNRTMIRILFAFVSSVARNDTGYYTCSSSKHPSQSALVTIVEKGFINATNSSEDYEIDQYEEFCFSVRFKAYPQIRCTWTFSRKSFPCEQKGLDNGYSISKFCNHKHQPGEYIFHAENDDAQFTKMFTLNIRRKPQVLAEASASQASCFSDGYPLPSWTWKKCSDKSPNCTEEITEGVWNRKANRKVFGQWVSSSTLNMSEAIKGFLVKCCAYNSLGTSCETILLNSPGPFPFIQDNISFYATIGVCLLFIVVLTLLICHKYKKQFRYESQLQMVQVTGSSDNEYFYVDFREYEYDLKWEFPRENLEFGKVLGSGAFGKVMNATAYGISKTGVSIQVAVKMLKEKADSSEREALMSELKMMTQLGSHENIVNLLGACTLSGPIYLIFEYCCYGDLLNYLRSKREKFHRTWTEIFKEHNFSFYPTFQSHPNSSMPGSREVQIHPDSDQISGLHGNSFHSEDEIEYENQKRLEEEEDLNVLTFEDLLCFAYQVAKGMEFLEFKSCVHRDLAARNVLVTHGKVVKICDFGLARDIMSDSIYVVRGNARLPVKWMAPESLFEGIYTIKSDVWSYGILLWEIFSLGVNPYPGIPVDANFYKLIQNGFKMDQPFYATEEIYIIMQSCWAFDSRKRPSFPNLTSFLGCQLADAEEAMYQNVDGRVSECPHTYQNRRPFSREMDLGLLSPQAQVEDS
The assay can be described thus: DiscoverX KINOMEscan competition binding, FLT3 N841I.

The target of the next assay is T3, FLT3 D835H (Homo sapiens, UniProt P36888, D835H).
T3 construct: purchased DiscoverX (KINOMEscan)
T3 sequence (P36888 27-993 D835H): T2 sequence (P36888 27-993 N841I) with D809H, I815N
The assay can be described thus: DiscoverX KINOMEscan competition binding, FLT3 D835H.

The target of a further assay is T4, FLT3 Autoinh. (Homo sapiens, UniProt P36888).
T4 construct: purchased DiscoverX (KINOMEscan)
T4 sequence (P36888 564-993 limits assumed): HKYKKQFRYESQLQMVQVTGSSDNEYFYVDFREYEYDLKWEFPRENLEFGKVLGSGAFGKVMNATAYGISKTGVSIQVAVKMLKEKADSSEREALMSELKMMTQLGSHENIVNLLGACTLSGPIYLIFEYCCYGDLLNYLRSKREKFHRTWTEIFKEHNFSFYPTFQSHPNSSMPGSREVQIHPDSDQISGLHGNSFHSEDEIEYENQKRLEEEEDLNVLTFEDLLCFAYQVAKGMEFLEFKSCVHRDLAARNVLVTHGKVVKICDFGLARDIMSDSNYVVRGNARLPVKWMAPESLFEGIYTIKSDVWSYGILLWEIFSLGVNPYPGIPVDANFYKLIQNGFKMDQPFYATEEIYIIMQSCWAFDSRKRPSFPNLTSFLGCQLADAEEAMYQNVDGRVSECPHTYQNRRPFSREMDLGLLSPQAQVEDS
The assay is described as follows: DiscoverX KINOMEscan competition binding, FLT3 Autoinh.

Molecules are shown by their SMILES. Positions count from the first letter of the chain named. Where two headings read alike, the source gives them in different places.

As for `COc1cc2ncc(-c3ccnc(N[C@@H]4CCCNC4)n3)n2nc1C1CC1` [Compound 50, (R)-4-(6-cyclopropyl-7-methoxyimidazo[1,2-b]pyridazin-3-yl)-N-(piperidin-3-yl)pyrimidin-2-amine], the results for the IC50 with MOLM14 F691L cells and against FLT3 (FLT3 IC50) were 172 nM and < 0.5 nM, respectively.
Regarding `F[C@H]1CCNC[C@@H]1Nc1cncc(-c2cnc3cc(OC4CC4)ccn23)n1` [Compound 12, 6-(7-cyclopropoxyimidazo[1,2-a]pyridin-3-yl)-N-((3S,4S)-4-fluoropiperidin-3-yl)pyrazin-2-amine], the IC50 was 86 nM in the assay with MOLM14 F691L cells and < 0.5 nM against FLT3 (FLT3 IC50). Also, the Kd on FLT3 N841I came out at 4.7 nM; at FLT3 D835H, 1.1 nM.
Consider `COc1cc2ncc(-c3ccnc(N[C@H]4CNCC[C@@H]4F)n3)n2nc1C1CC1` [Compound 51, 4-(6-cyclopropyl-7-methoxyimidazo[1,2-b]pyridazin-3-yl)-N-((3S,4S)-4-fluoropiperidin-3-yl)pyrimidin-2-amine], for which the figures for the IC50 in the assay with MOLM14 F691L cells and against FLT3 (FLT3 IC50) were 122 nM and < 0.5 nM, respectively. Moreover, the dissociation constant Kd stood at 0.62 nM at FLT3 N841I, 0.47 nM at FLT3 D835H and 40 nM at FLT3 Autoinh..
Take `COc1cc2ncc(-c3cncc(N[C@H]4CNCC[C@@H]4F)n3)n2nc1C1CC1` [Compound 24, 6-(6-cyclopropyl-7-methoxyimidazo[1,2-b]pyridazin-3-yl)-N-((3S,4S)-4-fluoropiperidin-3-yl)pyrazin-2-amine]: the Kd came out at 0.51 nM on FLT3 N841I, 0.33 nM on FLT3 D835H and 25 nM at FLT3 Autoinh.. Also, on FLT3 (FLT3 IC50), the IC50 was < 0.5 nM.
Turning to `COc1cc2ncc(-c3ccnc(N[C@@H]4CCCNC4)n3)n2cc1C(C)(C)O` [Compound 44, (R)-2-(7-methoxy-3-(2-(piperidin-3-ylamino)pyrimidin-4-yl)imidazo[1,2-a]pyridin-6-yl)propan-2-ol], the IC50 was 86 nM in the assay on MOLM14 F691L cells and < 0.5 nM against FLT3 (FLT3 IC50). The figures for the equilibrium dissociation constant (Kd) at FLT3 N841I, at FLT3 D835H and at FLT3 Autoinh. were 0.97 nM, 0.28 nM and 2.3 nM, respectively.
In the case of `COc1cc2ncc(-c3cncc(N[C@H]4CNC[C@@H]4F)n3)n2nc1C1CC1` [Compound 22, 6-(6-cyclopropyl-7-methoxyimidazo[1,2-b]pyridazin-3-yl)-N-((3S,4S)-4-fluoropyrrolidin-3-yl)pyrazin-2-amine], the dissociation constant Kd on FLT3 N841I worked out at 5.6 nM; on FLT3 D835H, 0.87 nM; on FLT3 Autoinh., 33 nM. In addition, on FLT3 (FLT3 IC50), the IC50 is < 0.5 nM.
`CC(O)(c1cn2c(-c3ccnc(N[C@H]4CNCC[C@@H]4F)n3)cnc2cn1)C(F)(F)F` (single isomer, unassigned) [Compound 72]: the half-maximal inhibitory concentration (IC50) was 433 nM in the assay on MOLM14 F691L cells and < 0.5 nM on FLT3 (read-out: FLT3 IC50). In addition, the results for the Kd at FLT3 N841I, at FLT3 D835H and at FLT3 Autoinh. were 7.4 nM, 1.1 nM and 25 nM, respectively.
Take `COc1cc2ncc(-c3ccnc(N[C@H]4CNC[C@@H]4F)n3)n2nc1C1CC1` [Compound 49, 4-(6-cyclopropyl-7-methoxyimidazo[1,2-b]pyridazin-3-yl)-N-((3S,4S)-4-fluoropyrrolidin-3-yl)pyrimidin-2-amine]: the IC50 in the assay with MOLM14 F691L cells is 307 nM; against FLT3 (FLT3 IC50), < 0.5 nM. Further, the values for the Kd on FLT3 N841I, on FLT3 D835H and at FLT3 Autoinh. were 0.61 nM, 0.46 nM and 16 nM, respectively.

Usually IC50 stands for the concentration at which inhibition is half-maximal. A word on the Kd: it is the free concentration of one partner at which half of the binding sites on the other are occupied at equilibrium, for simple one-to-one binding.
